# Assay results as given in US20100028839A1, “METHODS AND SYSTEMS FOR EVALUATING MEMORY AGENTS” (priority 2008, published 2010).
# Values joined by “and” are separate entries in the source; they are usually repeats but may differ in a detail not shown here. Equal values may be shown once.
# Experiments:
# aged male macaques [1] = assay: Observation of behavioral or physical side effects during the DL LTR study; assay type: in vivo; settings: any dose given (1, 10, 100 mg/kg p.o. daily)
# Procedure: (§1) The study was conducted using 6 aged male macaques (age approximately 22 years at onset of the study which is equivalent to approximately 66 human years) previously trained to performed certain memory tasks. Assessments of memory performance used the CANTAB system (the Cambridge Neuropsychological Test Automated Battery) and a new task.
# (§2) All drugs were administered orally in marshmallow while the animal was in a specially designed testing cage. Vehicle was marshmallow alone.
# (§3) Treatments were administered sequentially starting with treatment 1. Each treatment (dose of HT-0712 or vehicle) was administered once per day for 4 days before behavioral training began and then continued at 1 treatment (dose of HT-0712 or vehicle) per day, delivered four hours before testing, for the duration of the training period. When each individual animal reached performance criterion of at least 85% correct responses during a daily session, training and dosing ceased for seven days. Then, on post-criterion day 8, animals were tested again on the DL LTR task (retention testing).
# Data from this non-responder were removed from the statistical analysis.
# aged male macaques [2] = assay: Discrimination Learning - Long Term Retrieval task (DL LTR); assay type: in vivo; settings: for RT 1-14 (retention test trials 1 to 14), mean / RT 15-28 (retention test trials 15 to 28), mean / retention test, mean / RT overall / RT trials 1-14 / RT trials 15-28: day 8 post-criterion; for RT overall / RT trials 1-14 / RT trials 15-28: raw data of individual animals; for C value / Days to C: raw data of individual animals (Old-1, -2, -5, -7, -8, -9)
# Procedure: as §1
# In this task, animals are presented with 2 pairs of stimuli (e.g. 1 pair of shapes and 1 pair of lines) over the course of a daily test session. For each pair of stimuli, one stimulus is arbitrarily designated as the positive stimulus (i.e., touch of that stimulus is rewarded). Each pair of stimuli is presented 14 times during a daily session that consists of 28 trials. The pairs of stimuli (shapes or lines) are presented in a pseudo randomized fashion during each session. Animals have to touch the “positive” shape or line in order to receive a sugar pellet reward accompanied by a pleasant tone. Touching the alternative shape or line results in a negative tone, no sugar pellet and a time out. Animals are tested daily until they reach a performance criterion of 85% correct responses during a daily session. When this criterion is reached, animals receive no further testing for the next 7 days. On day 8 post-criterion, animals are tested again using the same pairs of stimuli that they have seen previously learned in order to assess long term retrieval of the learned discriminations.
# as §2, §3
# The percent correct responses on the total number of daily trials were recorded as well as the number of days needed to reach the criterion (at least 85% correct responses in a single test session). The percent correct responses on the retention trial was recorded for the entire retention trial session and sub-analyzed for performance differences on trials 1-14 versus trials 15-28.
# Data from vehicle trials were compared to data from drug trials using a one way ANOVA. Post hoc comparisons were made using the Bonferroni t-test.
# aged rats = settings: treatment of aged rats; cited from earlier work
# [3] = 1 mg/kg p.o. daily, excluding NHP old-9 (N=5), mean±s.e.m.
# [4] = 1 mg/kg p.o. daily, including NHP old-9 (N=6)
# [5] = 1 mg/kg p.o. daily, entire study group including NHP old-9 (N=6)
# [6] = 1 mg/kg p.o. daily, excluding non-responder NHP old-9 (N=5), mean±s.e.m.
# [7] = 10 mg/kg p.o. daily, excluding NHP old-9 (N=5), mean±s.e.m.
# [8] = 10 mg/kg p.o. daily, including NHP old-9 (N=6)
# [9] = 10 mg/kg p.o. daily, entire study group including NHP old-9 (N=6)
# [10] = 10 mg/kg p.o. daily, excluding non-responder NHP old-9 (N=5), mean±s.e.m.
# [11] = 100 mg/kg p.o. daily, excluding NHP old-9 (N=5), mean±s.e.m.
# [12] = 100 mg/kg p.o. daily, including NHP old-9 (N=6)
# [13] = 100 mg/kg p.o. daily, entire study group including NHP old-9 (N=6)
# [14] = 100 mg/kg p.o. daily, excluding non-responder NHP old-9 (N=5), mean±s.e.m.
structure (smiles),measurement,setting,value
COc1ccc([C@H]2CNC(=O)[C@H](Cc3cccc(C)c3)C2)cc1OC1CCCC1 [HT-0712],behavioral or physical side effects,aged male macaques [1],no noticeable behavioral or physical side effects
same,"RT 1-14 (retention test trials 1 to 14), mean",aged male macaques [2]; [3],80.2±6.2 % correct responses and 80.200 % correct responses
same,"RT 15-28 (retention test trials 15 to 28), mean",aged male macaques [2]; [3],91.6±3.4 % correct responses and 91.600 % correct responses
same,"retention test, mean",aged male macaques [2]; [3],85.8±4.6 % correct responses and 85.800 % correct responses
same,"RT 1-14 (retention test trials 1 to 14), mean",aged male macaques [2]; [4],77.500 % correct responses
same,"RT 15-28 (retention test trials 15 to 28), mean",aged male macaques [2]; [4],88.167 % correct responses
same,"retention test, mean",aged male macaques [2]; [4],82.833 % correct responses
same,RT overall,aged male macaques [2]; 1 mg/kg p.o. daily,89.00 % correct responses and 68.00 % correct responses (2×) and 93.00 % correct responses (2×) and 86.00 % correct responses
same,RT trials 1-14,aged male macaques [2]; 1 mg/kg p.o. daily,86.00 % correct responses (2×) and 64.00 % correct responses and 93.00 % correct responses and 79.00 % correct responses and 57.00 % correct responses
same,RT trials 15-28,aged male macaques [2]; 1 mg/kg p.o. daily,93.00 % correct responses (3×) and 71.00 % correct responses and 100.00 % correct responses and 79.00 % correct responses
same,"C value (criterion value reached), mean",aged male macaques [2]; [5],91.000 % correct responses
same,"day to C (days to reach criterion), mean",aged male macaques [2]; [5],12.667 days
same,"C value (criterion value reached), mean",aged male macaques [2]; [6],91.4±1.8 % correct responses and 91.400 % correct responses
same,"day to C (days to reach criterion), mean",aged male macaques [2]; [6],12.0 ± 3.6 days and 12.000 days
same,C value,aged male macaques [2]; 1 mg/kg p.o. daily,96.00 % correct responses and 89.00 % correct responses (2×) and 86.00 % correct responses and 93.00 % correct responses (2×)
same,Days to C,aged male macaques [2]; 1 mg/kg p.o. daily,4 days and 17 days and 15 days and 3 days and 21 days and 16 days
same,"RT 1-14 (retention test trials 1 to 14), mean",aged male macaques [2]; [7],71.4±3.4 % correct and 71.400 % correct
same,"RT 15-28 (retention test trials 15 to 28), mean",aged male macaques [2]; [7],87.2±4.8 % correct and 87.200 % correct
same,"retention test, mean",aged male macaques [2]; [7],79.2±3.5 % correct responses and 79.200 % correct responses
same,"RT 1-14 (retention test trials 1 to 14), mean",aged male macaques [2]; [8],73.833 % correct responses
same,"RT 15-28 (retention test trials 15 to 28), mean",aged male macaques [2]; [8],87.000 % correct responses
same,"retention test, mean",aged male macaques [2]; [8],80.333 % correct responses
same,RT overall,aged male macaques [2]; 10 mg/kg p.o. daily,89.00 % correct responses and 86.00 % correct responses (2×) and 75.00 % correct responses (2×) and 71.00 % correct responses
same,RT trials 1-14,aged male macaques [2]; 10 mg/kg p.o. daily,79.00 % correct responses (2×) and 86.00 % correct responses and 64.00 % correct responses (2×) and 71.00 % correct responses
same,RT trials 15-28,aged male macaques [2]; 10 mg/kg p.o. daily,100.00 % correct responses and 86.00 % correct responses (3×) and 71.00 % correct responses and 93.00 % correct responses
same,"C value (criterion value reached), mean",aged male macaques [2]; [9],89.333 % correct responses
same,"day to C (days to reach criterion), mean",aged male macaques [2]; [9],14.000 days
same,"C value (criterion value reached), mean",aged male macaques [2]; [10],90.0±2.6 % correct responses and 90.000 % correct responses
same,"day to C (days to reach criterion), mean",aged male macaques [2]; [10],11.8 ± 2.3 days and 11.800 days
same,C value,aged male macaques [2]; 10 mg/kg p.o. daily,89.00 % correct responses (2×) and 86.00 % correct responses (3×) and 100.00 % correct responses
same,Days to C,aged male macaques [2]; 10 mg/kg p.o. daily,18 days and 9 days and 5 days and 12 days and 15 days and 25 days
same,"RT 1-14 (retention test trials 1 to 14), mean",aged male macaques [2]; [11],58.4±4.1 % correct and 58.400 % correct
same,"RT 15-28 (retention test trials 15 to 28), mean",aged male macaques [2]; [11],71.4±6.1 % correct and 71.400 % correct
same,"retention test, mean",aged male macaques [2]; [11],65.0±3.5 % correct responses and 65.000 % correct responses
same,"RT 1-14 (retention test trials 1 to 14), mean",aged male macaques [2]; [12],59.333 % correct responses
same,"RT 15-28 (retention test trials 15 to 28), mean",aged male macaques [2]; [12],72.667 % correct responses
same,"retention test, mean",aged male macaques [2]; [12],66.000 % correct responses
same,RT overall,aged male macaques [2]; 100 mg/kg p.o. daily,75.00 % correct responses and 71.00 % correct responses and 57.00 % correct responses (2×) and 68.00 % correct responses (2×)
same,RT trials 1-14,aged male macaques [2]; 100 mg/kg p.o. daily,64.00 % correct responses (2×) and 50.00 % correct responses (2×) and 57.00 % correct responses and 71.00 % correct responses
same,RT trials 15-28,aged male macaques [2]; 100 mg/kg p.o. daily,86.00 % correct responses (2×) and 79.00 % correct responses and 64.00 % correct responses (2×) and 57.00 % correct responses
same,"C value (criterion value reached), mean",aged male macaques [2]; [13],86.333 % correct responses
same,"day to C (days to reach criterion), mean",aged male macaques [2]; [13],10.333 days
same,"C value (criterion value reached), mean",aged male macaques [2]; [14],86.4±0.7 % correct responses and 86.400 % correct responses
same,"day to C (days to reach criterion), mean",aged male macaques [2]; [14],9.0 ± 2.8 days and 9.000 days
same,C value,aged male macaques [2]; 100 mg/kg p.o. daily,85.00 % correct responses and 86.00 % correct responses (4×) and 89.00 % correct responses
same,Days to C,aged male macaques [2]; 100 mg/kg p.o. daily,11 days and 3 days and 10 days and 18 days and 17 days
same,animals with improved memory performance (decrease in the number of days needed to reach criterion),"aged male macaques [2]; 1, 10, 100 mg/kg p.o., six aged macaques",Five of the six
same,days to criterion versus vehicle,"aged male macaques [2]; each dose (1, 10, 100 mg/kg p.o.), Bonferroni t-test, p<0.050, old-9 excluded",significant decrease
same,learning ability and long term memory of normal aged non-human primates,aged male macaques [2]; summary of study,significantly improves
COc1ccc(C2CNC(=O)C2)cc1OC1CCCC1 (centres unmarked) [rolipram],age-dependent loss of hippocampal-dependent memory and cellular long-term potentiation,aged rats,ameliorates
